Like-named read-outs stand apart in the source and are kept apart here.

Assay [1] deals with phosphorylation of eIF4E at ser209 in MV4.11 cell line. Description: MNK cellular activity phospho-eIF4E detection assay (Alphascreen Surefire). The assay is classed as cell-based. Conditions: Homo sapiens; MV4.11 cell line, phospho-eIF4E (ser209) Alphascreen Surefire; read-out: P(IC50) elF4E (converted). How it is done: The assay detection is based on the formation of sandwich antibody complexes coupled to donor and acceptor beads. Excitation at 680 nm causes the transfer of a singlet oxygen species between donor and acceptor beads when they are in close proximity by binding to the analyte ([…]), which results in the emission of light at 520-620 nm.
Cells were then lysed and the Alphascreen Surefire protocol followed according to manufacturer's recommendations. 8 ul Acceptor beads (1:50 dilution in kit activation buffer) was added to lysate, shaken 150 rpm for 2 min and incubated for 1.5 hr at room temperature. 3 ul Donor beads (1:20 dilution in kit dilution buffer) were then added, shaken 150 rpm for 2 min and incubated for a further 1.5 hr at room temperature after which the plates were read on Pherastar FS using Alphascreen optic module.
Data were normalised relative to untreated DMSO only controls and curves repeated in duplicate within experiments. Data reported are averages of at least 2 independent experiments.
In general terms: In Alpha technology, singlet oxygen from a donor bead excites a nearby acceptor bead.

Another assay deals with T1, Full-length human MNK1 (Homo sapiens, UniProt Q9BUB5, T385D).
T1 construct: GST (N); purchased Carna Biosciences 02-145; host or cells: baculovirus expression system
T1 sequence (Q9BUB5 1-424 isoform Q9BUB5-2 T344D): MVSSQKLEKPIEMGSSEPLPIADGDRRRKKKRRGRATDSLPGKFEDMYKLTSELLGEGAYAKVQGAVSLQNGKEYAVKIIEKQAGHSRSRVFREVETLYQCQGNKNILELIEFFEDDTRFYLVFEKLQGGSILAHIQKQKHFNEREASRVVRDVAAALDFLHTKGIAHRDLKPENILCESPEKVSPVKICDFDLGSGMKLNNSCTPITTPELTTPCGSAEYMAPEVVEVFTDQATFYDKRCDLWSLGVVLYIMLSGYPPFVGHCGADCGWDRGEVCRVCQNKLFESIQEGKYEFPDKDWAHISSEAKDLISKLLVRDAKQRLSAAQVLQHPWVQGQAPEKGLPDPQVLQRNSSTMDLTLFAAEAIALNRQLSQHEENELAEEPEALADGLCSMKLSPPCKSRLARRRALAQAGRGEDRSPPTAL
Description: MNK1 biochemical IC50 assay (Caliper Mobility Shift Assay). From the text:
(§1) The phosphorylated peptide product and unphosphorylated peptide substrate were detected using a Caliper Mobility Shift Assay using the Caliper LabChip EZ Reader II.
(§2) The Caliper Mobility Shift Assay technology is based on the utilisation of a microfluidic chip to measure the conversion of a fluorescent non-phosphorylated peptide substrate to phosphorylated product by electrophoresis separation of substrate and product and detection via Laser-induced fluorescence. The LabChip EZ Reader software calculates the relative heights of substrate and product peaks and reports the peak ratio (Product peak(P) divided by the sum of Product peak(P) and Substrate peak(S)). The percent-conversion is calculated as 100×[(P/(P+S)]. All assays were set up to run in the linear phase with a maximum of 10 percent substrate conversion.
(§3) These were N-terminal GST fusion proteins expressed in baculovirus expression system and purified by glutathione sepharose affinity chromatography. […] All other assay reagents were sourced from Sigma.
Compounds were serially diluted in DMSO to generate a 10-point half log dilution curve with a final top concentration of 100 uM in the assay. […] Compounds were pre-incubated with enzyme and peptide in reaction buffer for 30 mins prior to addition of ATP to initiate the reaction. Final assay concentrations were 3 nM MNK1, 2 uM peptide substrate, 50 uM ATP, 50 mM Hepes pH 7.0, 0.01% BSA, 10 mM MgCl2, 1 mM dithiothrietol.
(§4) The assay incubation times were adjusted depending on the concentration of ATP used. Assays were performed at low (50 uM) and high (1 mM) ATP. The low ATP values were selected to run at Km conditions for the standard assay to allow relative potencies to be compared across other kinases. The high ATP concentration was selected as representative of cellular ATP concentrations, and for an indication of ATP competition, where a significant shift (greater than half log) in apparent potency would be expected compared to Km conditions. All IC50 values reported are the average of at least two independent experiments.

For a further assay, the target named is T2, Full-length human MNK2 (Homo sapiens, UniProt Q9HBH9, T379D).
T2 construct: GST (N); purchased Carna Biosciences 02-146; host or cells: baculovirus expression system
T2 sequence (Q9HBH9 whole entry T379D): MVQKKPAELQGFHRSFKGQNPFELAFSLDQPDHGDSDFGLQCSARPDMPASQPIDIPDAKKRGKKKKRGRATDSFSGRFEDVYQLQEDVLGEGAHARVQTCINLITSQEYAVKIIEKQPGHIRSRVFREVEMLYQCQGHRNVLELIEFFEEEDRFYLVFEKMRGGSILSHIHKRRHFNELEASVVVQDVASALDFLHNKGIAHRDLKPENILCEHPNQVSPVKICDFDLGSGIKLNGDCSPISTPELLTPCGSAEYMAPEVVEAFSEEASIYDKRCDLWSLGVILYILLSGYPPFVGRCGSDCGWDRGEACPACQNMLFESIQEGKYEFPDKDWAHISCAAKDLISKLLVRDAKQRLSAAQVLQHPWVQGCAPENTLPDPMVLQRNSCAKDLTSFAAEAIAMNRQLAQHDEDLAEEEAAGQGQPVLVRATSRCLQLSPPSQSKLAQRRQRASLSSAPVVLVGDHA
The assay is described as follows: MNK2 biochemical IC50 assay (Caliper Mobility Shift Assay).
Text: as §1, §2, §3, §4
Reactions were performed as above using 10 nM MNK2 in the assay. Standard assays contained 50 uM ATP and high concentration ATP assays contained 1 mM ATP. […] All other conditions were the same.

[2] abbreviates: read-out: P(IC50) MNK1 (converted).
[3] abbreviates: read-out: P(IC50) MNK2 (converted).

The term IC50 denotes the concentration at which inhibition is half-maximal. On to `O=C(NC1COC1)c1nc2c(N3CCc4ccccc43)ncnc2s1` [Example 100, 7-indolin-1-yl-N-(oxetan-3-yl)thiazolo[5,4-d]pyrimidine-2-carboxamide], for which the IC50 was 15.8 nM in assay [1], 25.1 nM at Full-length human MNK1 (setting [2]) and 20 nM at Full-length human MNK2 (setting [3]).
For the molecule `O=C(NC1CCOCC1)c1nc2c(N3CC(CCO)c4ccccc43)ncnc2s1` (stereo not shown) [Example 110, 7-[3-(2-hydroxyethyl)indolin-1-yl]-N-tetrahydropyran-4-yl-thiazolo[5,4-d]pyrimidine-2-carboxamide], the IC50 (in assay [1]; at Full-length human MNK1 (setting [2]); at Full-length human MNK2 (setting [3])) was 10 nM in each case.
Take `CC1(C)CN(C(=O)c2nc3c(N4CCc5ccccc54)ncnc3s2)CCO1` [Example 102, (2,2-dimethylmorpholin-4-yl)-(7-indolin-1-ylthiazolo[5,4-d]pyrimidin-2-yl)methanone]: the half-maximal inhibitory concentration (IC50) in assay [1] was 631 nM; at Full-length human MNK1 (setting [2]), 158 nM; on Full-length human MNK2 (setting [3]) it was 200 nM.
On the same counts, the results for `CC(C)(O)c1nc2c(N3CCc4cc(F)ccc43)ncnc2s1` [Example 82, 2-[7-(5-Fluoroindolin-1-yl)thiazolo[5,4-d]pyrimidin-2-yl]propan-2-ol] are 158 nM, 31.6 nM and 31.6 nM.
The corresponding values for `CNCCCNC(=O)c1nc2c(N3c4ccccc4C[C@H]3C)ncnc2s1` [Example 128, N-[3-(methylamino)propyl]-7-[(2R)-2-methylindolin-1-yl]thiazolo[5,4-d]pyrimidine-2-carboxamide] are 79.4 nM, 20 nM and 12.6 nM.
On the same counts, the results for `CO[C@H]1CCC[C@@H](Oc2cc(F)ccc2Nc2ncnc3sc(C(=O)NCC4CCNCC4)nc23)C1` [Example 60, 7-[4-fluoro-2-[(1R,3S)-3-methoxycyclohexoxy]anilino]-N-(4-piperidylmethyl)thiazolo[5,4-d]pyrimidine-2-carboxamide] are 631 nM, 794 nM and 1000 nM.
As to `O=C(NCC1CCNCC1)c1nc2c(Nc3ccc4[nH]ncc4c3)ncnc2s1` [Example 50, 7-(1H-indazol-5-ylamino)-N-(4-piperidylmethyl)thiazolo[5,4-d]pyrimidine-2-carboxamide], the half-inhibitory concentration (IC50) in assay [1] was 794 nM; on Full-length human MNK1 (setting [2]), 20 nM; at Full-length human MNK2 (setting [3]) it was 31.6 nM.
The corresponding values for `O=C(NC1CCOCC1)c1nc2c(N3CCc4cc(C(F)(F)F)ccc43)ncnc2s1` [Example 112, N-(tetrahydro-2H-pyran-4-yl)-7-(5-(trifluoromethyl)indolin-1-yl)thiazolo[5,4-d]pyrimidine-2-carboxamide] are 316 nM, 200 nM and 126 nM.
On the same counts, the results for `CC(C)Oc1cc(F)ccc1Nc1ncnc2sc(C(=O)NCCCO)nc12` [Example 8, 7-(4-fluoro-2-isopropoxy-anilino)-N-(3-hydroxypropyl)thiazolo[5,4-d]pyrimidine-2-carboxamide] are 63.1 nM, 50.1 nM and 50.1 nM.
Consider `CN(C)Cc1cn(-c2ncnc3sc(C(=O)NC4CCOCC4)nc23)c2ccccc12` [Example 121, 7-[3-[(dimethylamino)methyl]indol-1-yl]-N-tetrahydropyran-4-yl-thiazolo[5,4-d]pyrimidine-2-carboxamide], for which the IC50 in assay [1] was 79.4 nM; at Full-length human MNK1 (setting [2]) it was 39.8 nM; on Full-length human MNK2 (setting [3]) it was 79.4 nM.
Take `COCCCNC(=O)c1nc2c(N3CC(CCN)c4ccccc43)ncnc2s1` (stereo not shown) [Example 166, 7-[3-(2-amino-ethyl)indolin-1-yl]-N-(3-methoxypropyl) thiazolo[5,4-d]pyrimidine-2-carboxamide]: the IC50 was 3.98 nM in assay [1], 5.01 nM on Full-length human MNK1 (setting [2]) and 5.01 nM at Full-length human MNK2 (setting [3]).
Regarding `CC(C)Oc1cc(F)ccc1Nc1ncnc2sc(C(=O)NC3CCS(=O)(=O)CC3)nc12` [Example 34, N-(1,1-dioxidotetrahydro-2H-thiopyran-4-yl)-7-{[4-fluoro-2-(propan-2-yloxy)phenyl]amino}[1,3]thiazolo[5,4-d]pyrimidine-2-carboxamide], the IC50 in assay [1] was 79.4 nM; on Full-length human MNK1 (setting [2]), 200 nM; at Full-length human MNK2 (setting [3]) it was 158 nM.
On the same counts, the results for `O=C(NCC1CCNCC1)c1nc2c(N3c4ccccc4C[C@H]3CO)ncnc2s1` [Example 137] are 158 nM, 200 nM and 126 nM.
On the same counts, the results for `CN(C)CCNc1nc2c(N3CCc4cc(F)ccc43)ncnc2s1` [Example 86] are 251 nM, 63.1 nM and 79.4 nM.
On the same counts, the results for `O=C(NC1CCOCC1)c1nc2c(N3CC4(CC4)c4cc(F)ccc43)ncnc2s1` [Example 107, 7-(5′-fluorospiro[cyclopropane-1,3′-indoline]-1′-yl)-N-tetrahydropyran-4-yl-thiazolo[5,4-d]pyrimidine-2-carboxamide] are 2 nM, 1.58 nM and 3.16 nM.
For the molecule `CN(C)CCCNC(=O)c1nc2c(N3CCc4ccccc43)ncnc2s1` [Example 27, N-[3-(Dimethylamino)propyl]-7-indolin-1-yl-thiazolo[5,4-d]pyrimidine-2-carboxamide], the IC50 is 10 nM on Full-length human MNK1 (setting [2]) and 7.94 nM on Full-length human MNK2.
On the same counts, the results for `CN(C)CCCNC(=O)c1nc2c(N3CC(C)(C)c4ccccc43)ncnc2s1` [Example 25, N-[3-(Dimethylamino)propyl]-7-(3,3-dimethylindolin-1-yl)thiazolo[5,4-d]pyrimidine-2-carboxamide] are 6.31 nM and 3.98 nM.
Consider `O=C(NCC1CCNCC1)c1nc2c(N3CCc4cc(Cl)ccc43)ncnc2s1` [Example 168, 7-(5-Chloroindolin-1-yl)-N-(4-piperidylmethyl)thiazolo[5,4-d]pyrimidine-2-carboxamide], for which the IC50 at Full-length human MNK1 (setting [2]) and at Full-length human MNK2 (setting [3]) was 3.16 nM in each case.
Consider `CO[C@H]1CCCC[C@@H]1Oc1cc(F)ccc1Nc1ncnc2sc(C(=O)NCCCN(C)C)nc12` [Example 21], for which the IC50 in assay [1] was 316 nM; at Full-length human MNK2 (setting [3]), 1260 nM.
Regarding `O=C(NCCCN1CCCC1)c1nc2c(N3CCc4cc(F)ccc43)ncnc2s1` [Example 68], the IC50 on Full-length human MNK1 and on Full-length human MNK2 was 2 nM throughout.
On to `O=C(NCC1CCNCC1)c1nc2c(Nc3ccc(F)cc3OC(F)(F)F)ncnc2s1` [Example 59, 7-[4-fluoro-2-(trifluoromethoxy)anilino]-N-(4-piperidylmethyl)thiazolo[5,4-d]pyrimidine-2-carboxamide], for which the IC50 in assay [1] is 631 nM; at Full-length human MNK2 (setting [3]), 1580 nM.
The corresponding values for `CC(C)Oc1ccc2c(c1)CCN2c1ncnc2sc(C(=O)NC3CCOCC3)nc12` [Example 116, 7-(5-Isopropoxyindolin-1-yl)-N-tetrahydropyran-4-yl-thiazolo[5,4-d]pyrimidine-2-carboxamide] are 501 nM and 631 nM.
Consider `CC(C)Oc1cc(F)ccc1Nc1ncnc2sc(C(=O)NCCN3CCNCC3)nc12` [Example 9, 7-(4-fluoro-2-isopropoxy-anilino)-N-(2-piperazin-1-ylethyl)thiazolo[5,4-d]pyrimidine-2-carboxamide], for which the half-maximal inhibitory concentration (IC50) was 50.1 nM on Full-length human MNK1 (setting [2]) and 31.6 nM on Full-length human MNK2.
